# From patent publication US6582680B2, “Acid resistant film forming dental composition and method of use” (priority 1999, dated 2003)
# Structures can show the parent of a compound that is named as a salt.
# System: dentin postoperative hypersensitivity of human teeth
# Test: Clinical evaluation of post-operative dentin hypersensitivity in amalgam restoration patients
# Assay type: in vivo
# Procedure: Prior to anesthesia for pre-treatment evaluation and during the first week of treatment, the patients completed a questionnaire on pain. The patients were also evaluated post-operatively at one, three and six weeks. […] Only patients who had elected amalgam restoration procedures at UAB were employed for this study. Each tooth received a pre anesthesia evaluation for dentin postoperative hypersensitive with a cold stimulus and air jet for thermal testing. For cold-ice testing, plastic needle covers were filled with water and frozen in a refrigerator freezer for uses as the standardized cold stimulus. For air stimulation, the standardized baseline air jet from a syringe was used to direct a blast of air at the offending tooth and defective restoration. A randomized number chart was employed to select teeth for either the Copalite® varnish controls or teeth to be treated with the product of the present invention, potassium oxalate dihydrate. Following pre operative data collection and anesthesia, each tooth then received a routine intracoronal Class-I or Class-II cavity preparations. […] Following cavity preparation, rinsing and gentle air drying, the entire preparation surface was treated with the Copalite® varnish without modification or removal of the smear layer. Each control cavity was treated with three layers of copal varnish and each layer gently air dispersed with a chip syringe before the following Copalite® coat was applied. […] The patient was also evaluated for postoperative hypersensitivity at one, three and six weeks post-operatively. […] Thermal tests for ice and an air jet were administered and data recorded as for all of the previous tests. For base line data, each patient was evaluated for pain or sensitivity to cold and air prior to their treatment in this study. […] All data was analyzed by one-way Analysis of Variance (ANOVA) at the 0.05 level depending on the cell sizes in our contingency table of treatments versus responses. […] Responses from each of the patients were recorded on separate sheets and then tabulated onto the master sheet according to the identified criteria. The raw data were recorded from the McGill Visual Analog Scale (MVAS) evaluation sheets. Data were recorded from all patients experiencing none, some or severe post-operative hypersensitivity based on the patient responses at the various intervals, preoperative at 0 days, and post treatment […]. […] The date for each of the McGill VA scales were tabulated and recorded on a separate sheet with the patient's name and clinical record number-as a 10 centimeter straight line with no identifying marks along its axis.
structure (smiles),measurement,setting,value
"O=C(O)C(=O)O [potassium oxalate dihydrate, oxalate acid potassium salt, dihydrate 99%]",patients pain free following the first procedure,"MVA survey, post-operative",88.5%
same,reduction in post-operative pain (collective MVA scale data),"McGill Visual Analog Scale, treated teeth",dramatic reduction
same,overall pain reduction for the cold discriminator measurement,"cold stimulus, compared with Copalite",greater reduction
same,"reduction in sensitivity / reported pain to the various stimuli (especially cold), in response to direct questioning","patients, post-operatively after amalgam restoration",80.3%
